# Reference: US8883849B2, “Treatment of sleep disturbances” (Wyeth LLC, priority 2001, dated 2014)
# Entries after “also recorded” stand apart in the source; their conditions may differ. Like-named read-outs stand apart in the source and are kept apart here. Marks after values point to notes of the source that are not given here.
# Experiments:
# [1] = Interaction and stability testing of ibuprofen and diphenhydramine in one composition; assay type: physicochemical; conditions: dissolution, appearance, potency
# Text: An ion pair or salt could, thus, be formed. Such an interaction creates a more nonpolar composition, which may have different dissolution characteristics and absorption profile in the body. Such changes in a pharmaceutical composition may be highly undesirable, due to unpredictability of effect.
# [2] = tested on: patients evaluated for sleep disturbances after oral surgery; test: Study A: single dose after oral surgery, ibuprofen, diphenhydramine and combination vs placebo; assay type: in vivo, human; conditions: diphenhydramine HCl 50 mg; for Duration of Sleep: 6-point categorical scale 0 (≦5 hours) to 5 (≧9 hours); for Global Evaluation: global evaluation of sleep, 5-point categorical scale; for Cumulative % Asleep at 60 minutes: nurse graded; for Sleep Latency (median): nurse observed, single dose ibuprofen 400 mg; for Time to Rescue (median): nurse recorded; for SPRID3: time-weighted sum of pain relief and pain intensity differences over 0-3 hours
# Text: A single center, inpatient, single dose, randomized (stratified by gender and baseline pain severity), double blind, double dummy, parallel group placebo controlled study was used.
# In a double dummy scenario, patients are given multiple dosage forms, one study medication for the group in which they are assigned, and placebos resembling the dosage forms for the other study groups. […] The combination was in a soft gelatin capsule formulation.
# The art recognizes that patient-assessed duration of sleep is a very good indicator of the amount of sleep received by the patient. If patients requested rescue medication within an hour of receiving treatment, they were considered protocol violators and removed from the study.
# The SPRID3 calculation was as follows. AT 90 minutes, 2 hours, and 3 hours, the patients were woken and asked two questions: how much relief of pain have you had? (no relief=0, a little=1, some=2, a lot=3, complete=4) and what is the severity of your pain? (none=0, mild=1, moderate=2, severe=3). Pain intensity difference (PID) was determined by subtracting the severity of pain score at the time in question to the baseline score measured before treatment. The pain relief rating (PPR) was then added to the PID for a PRID score. The PRID scores were plotted on a graph over time for each patient, and the SPRID3 score was read as the area under the curve for each patient's PRID plot. SPRID3 is a combination measurement of pain relief and pain severity.
# In this model, only one hour of phase shifting sleeplessness was induced, compared to three hours in subsequent studies. In other words, patients were required to go to sleep one hour earlier than their bedtime.
# [3] = tested on: patients with pain following oral surgery, bedtime 3 hours early; test: Study B (AE-98-01): ibuprofen/diphenhydramine combination vs ibuprofen alone and placebo after oral surgery; assay type: in vivo, human
# Description: This study was conducted in a similar manner to Example 1.
# The placebo group also received soft gelatin capsules.
# The trial was conducted as a randomized, stratified (by baseline pain and gender), inpatient, placebo controlled, partial factorial, single dose, double blind, parallel group, single center trial. Following oral surgery, patients were kept at the clinic site overnight. Study medications were dispenses when patients experienced pain at a moderate level or greater, and when it was between about 6:30 and 8:00 p.m. (3 hours prior to the patient's usual bedtime). Patients were required to go to sleep after receiving study medication.
# The same sleep parameters were used as in Example 1. Additionally, global assessment as a pain reliever was determined. This parameter was a patient-assessed parameter made at the time of rescue medication, if needed, or in the morning, if no rescue medication. Pain relief was assessed on a five-point scale (0=poor, 1=fair, 2=good, 3=very good, 4=excellent). Sleep was monitored by an observer at regular intervals over 3 hours post-dosing. Patients provided pain assessments at 90 and 120 minutes post-dosing. Patients also provided subjective assessments of sleep efficacy, global assessments of sleep and pain the next morning or at the time rescue medication was used.
# The following statistical methods were used. All analyses were done using SAS® Version 6.12. Subjective sleep and pain assessments were analyzed by analysis of variance (ANOVA), incorporating effects for treatment, baseline pain severity rating (PSR), and gender in the model. In addition, the interactions of treatment-by-baseline PSR and treatment-by-gender were assessed (at the 0.15 level) in separate models, by adding interaction terms, one at a time, to the initial ANOVA model. The distributions of sleep latency and time to rescue medication were assessed using the Kaplan-Meier estimates, and the variables were analyzed using the Cox proportional hazards regression model with treatment, baseline PSR and gender effects. In addition, the interactions of treatment-by-baseline PSR and treatment-by-gender were assessed (at the 0.15 level) in separate models by adding each interaction term, one at a time, to the initial model.
# If each interaction was generally significant (p≦0.15), it was retained in the final model. In the assessment of treatment effects in the presence of interactions, each level of the stratifying variable were to be weighted equally (consistent with the ANOVA models). Ninety-five percent confidence intervals for the median time to sleep and median time to rescue medication were derived. In addition, the actual and cumulative proportion of subjects asleep at each observation time point and the cumulative proportion of subjects who took rescue medication by each observation time point were analyzed by the Cochran-Mantel-Haenszel test controlling for baseline PSR and gender.
# In order to protect the Type I error at the 0.05 level, comparisons were tested in sequential order. Each step had to be significant for the subsequent steps to be eligible for significance.
# The secondary end points were assessed at the 0.05 level of significance, in the same sequential order.
# The primary analysis of efficacy was conducted on the intent-to-treat population, which included all randomized subjects who took the study medication and had at least one post-baseline (sleep and pain) efficacy assessment.
# [4] = tested on: subjects of the partial factorial studies (pain after oral surgery); test: Pooled data of studies AE-98-01/02; assay type: in vivo, human; conditions: for % who required remed.: Pooled Studies AE-98-01/02
# Text: Data from two of the studies were pooled together. Some of the most significant study data are presented in Table 7, with graphical representations of the data in FIGS. 28-29.
# [5] = tested on: normal sleep patterns in humans; conditions: cited from earlier work
# [6] = oral administration, cited from earlier work
# [7] = tested on: subjects with pain following oral surgery, bedtime at least 3 hours early; test: Study C (AE-98-02): ibuprofen/diphenhydramine combination vs ibuprofen alone after oral surgery; assay type: in vivo, human
# Description: This was a randomized stratified (by baseline pain and gender), inpatient, placebo-controlled, partial-factorial, single-dose, double-blind, parallel group, single-center trial. Following oral surgery, subjects were housed and observed at a clinic site overnight. When subjects experienced at least moderate pain and it was between approximately 6:30 PM and 8:00 PM (at least 3 hours earlier than their usual bedtime), they received study medication and were required to go to bed for the evening. Sleep was evaluated by an observer at regular intervals over 3 hours post-dosing. […] Subjects also provided subjective assessments of sleep efficacy as well as global assessments of the study medication as a sleep-aid and as an analgesic the next morning (or at the time rescue medication was used).
# The patients were assessed for duration of sleep, cumulative percent of subjects asleep at 60 minutes post-dosing (based on observed sleep latency assessments). they were also assessed for pain using SPRID2 (time-weighted sum of pain relief and pain intensity differences from baseline over 0-2 hours). Sleep latency (observer based), ease of falling asleep, and global evaluation of sleep were also used.
# Cumulative percent of subjects asleep by 60 minutes was analyzed by the Cochran-Mantel-Haenszel test controlling for baseline PSR and gender. Subjective sleep and pain assessments were analyzed by analysis of variance (ANOVA), incorporating effects for treatment, baseline pain severity rating (PSR), and gender in the model. The distributions of sleep latency and time to rescue medication were assessed using the Kaplan-Meier estimates, and the variables were analyzed using the Cox proportional hazards (PH) regression model with treatment, baseline PSR, and gender effects. For both ANOVA and PH models, the interactions of treatment-by-baseline PSR and treatment-by-gender were assessed (at the 0.15 level) in separate models by adding each interaction term, one at a time, to the initial model. If each interaction was generally significant (p≦0.15), it was retained in the final model. In the assessment of treatment effects in the presence of interactions, each level of the stratifying variable was to be weighted equally.
# In order to protect the Type I error at the 0.05 level, comparisons were tested in sequential order for the primary as well as the secondary efficacy endpoints. Each step had to be significant for the subsequent steps to be eligible for significance. […] The secondary end points were assessed, at the 0.05 level of significance, in a similar sequential order. The primary analysis of efficacy was based on the intent-to-treat (ITT) population, which included all randomized subjects who took study medication and had at least one post-baseline (sleep and pain) efficacy assessment.
# [8] = Study B, 5-point scale 0=poor to 4=excellent, IBU 400 mg, DPH 50 mg
# [9] = Study C, 5-point scale 0=poor to 4=excellent, IBU 400 mg, DPH 50 mg
smiles,measurement,setting,value
"CN(C)CCOC(c1ccccc1)c1ccccc1 [DPH, 2-(diphenylmethoxy)-N,N-dimethylethylamine]",interaction between ibuprofen and diphenhydramine in the composition,[1],much more prone to interaction than the citrate form
same,Duration of Sleep,[2]; ibuprofen 400 mg,0.23 A
same,Global Evaluation,[2]; ibuprofen 400 mg,0.77 A
same,% Requiring Rescue,[2]; ibuprofen 400 mg,97% B
same,Cumulative % Asleep at 60 minutes,[2]; ibuprofen 400 mg,61.3 A %
same,Sleep Latency (median),[2],51.3 A
same,Time to Rescue (median),[2]; ibuprofen 400 mg,2.04 A hours
same,SPRID3,[2]; ibuprofen 400 mg,1.8 A
"CC(C)Cc1ccc(C(C)C(=O)O)cc1 (centres unmarked) [IBU, Ibuprofen]",Ease of Falling Asleep - mean,"[3]; Study B, 5-point scale 0-4, IBU 400 mg, DPH 50 mg",1.81*
same,Global Assessment as a Pain Reliever,[3]; [8],2.30*
same,Global Assessment as a Sleep-Aid,[3]; [8],1.63*
same,Duration of Sleep - mean,"[3]; Study B, 6-point categorical scale, IBU 400 mg, DPH 50 mg",2.26*
same,PRID 90 minutes,"[3]; Study B, 90 minutes post-dosing, IBU 400 mg, DPH 50 mg",3.72*
same,PRID 120 minutes,"[3]; Study B, 120 minutes post-dosing, IBU 400 mg, DPH 50 mg",4.09*
same,% Requiring Rescue Medication for Any Reason,"[3]; Study B, IBU 400 mg, DPH 50 mg",48.3* %
same,SPRID2,"[3]; Study B, IBU 400 mg, DPH 50 mg",7.63*
same,Sleep Latency (Observed) - median,"[3]; Study B, IBU 400 mg, DPH 50 mg",44.0* minutes
same,Time to Rescue Medication for Any Reason,"[3]; Study B, IBU 400 mg, DPH 50 mg",>12* hours
same,Cumulative % Asleep at 60 minutes,"[3]; Study B, IBU 400 mg, DPH 50 mg, soft gelatin capsules",64.4^† %
same,% who required remed.,"[3]; Table 7, Study AE-98-01",(48%)
same,Time to Remed.,"[3]; Table 7, Study AE-98-01",>12.0 B hrs.
same,Global Eval - Sleep-Aid,"[3]; Table 7, Study AE-98-01, 5-point scale 0-Poor to 4 = Excellent",1.63 B
same,Duration of Sleep,"[3]; Table 7, Study AE-98-01, 6-point scale 0 = <5 hrs to 5 = >9 hrs",2.26 B
same,% who required remed.,[4],(45%)
same,% who required remed.,[4]; listed as ibuprofen,45%
same,Time to Remed.,"[4]; Table 7, Pooled Studies AE-98-01/02",>12.0 B hrs.
same,Duration of Sleep,"[4]; Table 7, Pooled Studies AE-98-01/02, 6-point scale",2.12 B
same,Global Eval - Sleep-Aid,"[4]; Table 7, pooled studies, 5-point scale 0-Poor to 4 = Excellent",1.60 B
same,subjects who slept for less than 5 hours,[4]; pooled data,32%
same,effect on sleep (Gengo 1996),[5]; healthy adults,no impact on sleep
same,effect on sleep (Murphy et al. 1994),[5]; patients not suffering from pain,"increase the number of awakenings and percentage of time spent in stage wake, and decrease sleep efficiency; also recorded: delay the onset of deeper stages of sleep"
same,time to peak serum concentrations,[6]; suspensions,≤ 1 h
same,time to peak serum concentrations,[6]; tablets,≤ 2 h
same,Ease of Falling Asleep,"[2]; 5-point scale 0=did not fall asleep to 4=very easy, ibuprofen 400 mg",2.10 B
same,Duration of Sleep,[2]; ibuprofen 400 mg,2.68 B
same,Global Evaluation,[2]; ibuprofen 400 mg,1.84 B
same,% Requiring Rescue,[2]; ibuprofen 400 mg,45% B
same,Cumulative % Asleep at 60 minutes,[2]; ibuprofen 400 mg,77.4 AB %
same,Sleep Latency (median),[2],25 min
same,Sleep Latency (median),[2]; listed as ibuprofen,significantly better than the diphenhydramine and placebo groups
same,Time to Rescue (median),[2]; ibuprofen 400 mg,>10 B hours
same,SPRID3,[2]; ibuprofen 400 mg,13.7 B
same,Ease of Falling Asleep,"[7]; Study C, 5-point scale 0-4, IBU 400 mg, DPH 50 mg",1.89^†
same,Global Assessment as a Pain Reliever,[7]; [9],2.51^†
same,Global Assessment as a Sleep-Aid,[7]; [9],1.57^†
same,Duration of Sleep,"[7]; Study C, 6-point categorical scale, IBU 400 mg, DPH 50 mg, soft gelatin capsules",1.98^†
same,PRID 90 minutes,"[7]; Study C, 90 minutes post-dosing, IBU 400 mg, DPH 50 mg","3.83^†,§"
same,PRID 120 minutes,"[7]; Study C, 120 minutes post-dosing, IBU 400 mg, DPH 50 mg",4.13^†
same,% Requiring Rescue Medication for Any Reason,"[7]; Study C, IBU 400 mg, DPH 50 mg",42.3^† %
same,Cumulative % Asleep at 60 minutes,"[7]; Study C, IBU 400 mg, DPH 50 mg",75.6^† %
same,Time to Rescue Medication for Any Reason,"[7]; Study C, IBU 400 mg, DPH 50 mg",>12^† hours
same,SPRID2,"[7]; Study C, over 0-2 hours, IBU 400 mg, DPH 50 mg","7.81^†,§"
same,% who required remed.,"[7]; Table 7, Study AE-98-02",(42%)
same,Time to Remed.,"[7]; Table 7, Study AE-98-02",>12.0 B hrs.
same,Global Eval - Sleep-Aid,"[7]; Table 7, Study AE-98-02, 5-point scale 0-Poor to 4 = Excellent",1.57 B
same,Duration of Sleep,"[7]; Table 7, Study AE-98-02, 6-point scale 0 = <5 hrs to 5 = >9 hrs",1.98 B
